Results: the supplement of paper PMC10307832

What was measured:
Assay in all cases: relative viability (nuclei count vs DMSO), 5 days (fraction); higher = more cells survive
BAY61-3606 + Crizotinib = compound: COC1=C(C=C(C=C1)C2=CC3=NC=CN3C(=N2)NC4=C(C=CC=N4)C(=O)N)OC [BAY61-3606] + C[C@@H](Oc1cc(-c2cnn(C3CCNCC3)c2)cnc1N)c1c(Cl)ccc(F)c1Cl [Crizotinib] (partner 1 µM)
Summary of the method: (§1)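 Relative viability was taken as the ratio of nuclei in treated wells to nuclei in vehicle wells. Lung cancer cell lines in 1536-well plates received compounds by pin tool one day after seeding, either one drug alone or a fixed anchor-drug dose plus five library-drug doses (not always all listed) in √10 steps. Nuclei were counted on 4× images after 5 days of treatment, and values are medians of duplicate plates.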

Doxorubicin + Vorinostat = compound: COc1cccc2c1C(=O)c1c(O)c3c(c(O)c1C2=O)C[C@@](O)(C(=O)CO)C[C@@H]3O[C@H]1C[C@H](N)[C@H](O)[C@H](C)O1 [Doxorubicin] + O=C(CCCCCCC(=O)Nc1ccccc1)NO [Vorinostat] (partner 1 µM)
Summary of the method: as §1

BAY61-3606 + Palbociclib = compound: COC1=C(C=C(C=C1)C2=CC3=NC=CN3C(=N2)NC4=C(C=CC=N4)C(=O)N)OC [BAY61-3606] + CC(=O)c1c(C)c2cnc(Nc3ccc(N4CCNCC4)cn3)nc2n(C2CCCC2)c1=O [Palbociclib] (partner 0.5 µM)
Summary of the method: as §1

Doxorubicin + Bortezomib = compound: COc1cccc2c1C(=O)c1c(O)c3c(c(O)c1C2=O)C[C@@](O)(C(=O)CO)C[C@@H]3O[C@H]1C[C@H](N)[C@H](O)[C@H](C)O1 [Doxorubicin] + CC(C)C[C@H](NC(=O)[C@H](Cc1ccccc1)NC(=O)c1cnccn1)B(O)O [Bortezomib] (partner 0.002 µM)
Summary of the method: as §1

Row | Cell Line | relative viability (BAY61-3606 + Crizotinib; first compound 0.02 µM) | relative viability (BAY61-3606 + Crizotinib; first compound 0.06325 µM) | relative viability (BAY61-3606 + Crizotinib; first compound 0.2 µM) | relative viability (BAY61-3606 + Crizotinib; first compound 0.6325 µM) | relative viability (BAY61-3606 + Crizotinib; first compound 2 µM) | relative viability (Doxorubicin + Vorinostat; first compound 0.001 µM) | relative viability (Doxorubicin + Vorinostat; first compound 0.003162 µM) | relative viability (Doxorubicin + Vorinostat; first compound 0.01 µM) | relative viability (Doxorubicin + Vorinostat; first compound 0.03162 µM) | relative viability (Doxorubicin + Vorinostat; first compound 0.1 µM) | relative viability (BAY61-3606 + Palbociclib; first compound 0.02 µM) | relative viability (BAY61-3606 + Palbociclib; first compound 0.06325 µM) | relative viability (BAY61-3606 + Palbociclib; first compound 0.2 µM) | relative viability (BAY61-3606 + Palbociclib; first compound 0.6325 µM) | relative viability (BAY61-3606 + Palbociclib; first compound 2 µM) | relative viability (Doxorubicin + Bortezomib; first compound 0.001 µM) | relative viability (Doxorubicin + Bortezomib; first compound 0.003162 µM) | relative viability (Doxorubicin + Bortezomib; first compound 0.01 µM) | relative viability (Doxorubicin + Bortezomib; first compound 0.03162 µM) | relative viability (Doxorubicin + Bortezomib; first compound 0.1 µM)
1 | NCI-H1437 | 0.973 | 0.961 | 0.854 | 0.984 | 0.797 | 0.784 | 0.891 | 0.812 | 0.627 | 0.585 | 0.338 | 0.28 | 0.312 | 0.387 | 0.315 | 0.491 | 0.605 | 0.472 | 0.205 | 0.185
2 | NCI-H1650 | 0.936 | 1.08 | 0.866 | 1 | 0.385 | 0.52 | 0.625 | 0.417 | 0.181 | 0.16 | 0.316 | 0.291 | 0.37 | 0.413 | 0.298 | 0.215 | 0.185 | 0.187 | 0.185 | 0.168
3 | NCI-H1651 | 0.882 | 0.873 | 0.846 | 0.869 | 0.777 | 0.572 | 0.591 | 0.569 | 0.533 | 0.495 | 0.558 | 0.511 | 0.513 | 0.573 | 0.523 | 0.987 | 0.958 | 0.869 | 0.842 | 0.902
4 | NCI-H1666 | 1.13 | – | 0.782 | 0.968 | 0.969 | – | 1.1 | 0.972 | 0.808 | 0.806 | 0.657 | 0.745 | 0.731 | 0.634 | 0.688 | 0.833 | 0.559 | 0.476 | 0.302 | 0.272
5 | NCI-H1734 | 0.635 | 0.53 | 0.601 | 0.674 | 0.272 | 0.737 | 0.815 | 0.747 | 0.558 | 0.536 | 0.361 | 0.327 | 0.367 | 0.351 | 0.214 | 0.867 | 1.09 | 0.89 | 0.588 | 0.429
6 | NCI-H1755 | 0.787 | 0.786 | 0.839 | 0.982 | 0.721 | 0.78 | 0.749 | 0.716 | 0.788 | 0.827 | 0.435 | 0.451 | 0.482 | 0.495 | 0.444 | 0.99 | 0.947 | 0.985 | 0.981 | 0.969
7 | NCI-H1915 | 0.899 | 0.914 | 0.857 | 0.868 | 0.707 | 0.521 | 0.57 | 0.532 | 0.5 | 0.527 | 0.54 | 0.565 | 0.537 | 0.551 | 0.375 | 0.994 | 0.943 | 0.927 | 0.94 | 1
8 | NCI-H1975 | 0.921 | 0.947 | 0.907 | 0.888 | 0.585 | 0.731 | 0.735 | 0.678 | 0.679 | 0.531 | 0.616 | 0.628 | 0.526 | 0.504 | 0.347 | 0.433 | 0.364 | 0.321 | 0.226 | 0.165
9 | NCI-H1993 | 0.949 | 0.87 | 0.807 | 0.827 | 0.636 | 0.0284 | 0.67 | 0.851 | 0.509 | 0.462 | 0.581 | 0.626 | 0.48 | 0.688 | 0.524 | 1.1 | 0.945 | 1.06 | 0.634 | 0.439
10 | NCI-H2009 | 1.06 | 1.12 | 1.01 | 1.08 | 0.921 | 0.682 | 0.77 | 0.738 | 0.534 | 0.329 | 0.22 | 0.211 | 0.214 | 0.231 | 0.155 | 0.914 | 1.1 | 0.912 | 0.572 | 0.266
11 | NCI-H2023 | 0.713 | 0.61 | 0.703 | 0.751 | 0.53 | 0.463 | 0.657 | 0.272 | 0.0749 | 0.109 | 0.393 | 0.401 | 0.397 | 0.423 | 0.283 | 0.456 | 0.889 | 0.69 | 0.152 | 0.0962
12 | NCI-H2085 | 0.858 | 0.882 | 0.87 | 0.863 | 0.702 | 0.725 | 0.779 | 0.807 | 0.82 | 0.618 | 0.461 | 0.487 | 0.45 | 0.46 | 0.435 | 0.903 | 1.05 | 0.907 | 0.709 | 0.716
13 | NCI-H2087 | 0.585 | 0.931 | 0.818 | 0.863 | 0.619 | 0.327 | 1.08 | 0.746 | 0.75 | 0.677 | 0.234 | 0.264 | 0.221 | 0.28 | 0.249 | 0.6 | 0.7 | 0.869 | 0.678 | 0.55
14 | NCI-H2126 | 1.06 | 1.01 | 1 | 0.973 | 0.893 | 0.725 | 0.839 | 0.8 | 0.751 | 0.799 | 0.356 | 0.353 | 0.369 | 0.352 | 0.31 | 1.08 | 1.12 | 1.1 | 1.1 | 1.13
15 | NCI-H2228 | 0.483 | 0.405 | 0.526 | 0.378 | 0.478 | 0.759 | 0.43 | 0.46 | 0.374 | 0.518 | 0.989 | 0.916 | 0.731 | 0.766 | 0.553 | 0.88 | 1.05 | 0.617 | 0.254 | 0.124
16 | NCI-H2347 | 0.749 | 0.589 | 0.781 | 0.848 | 0.756 | 0.588 | 0.539 | 0.45 | 0.49 | 0.476 | 0.444 | 0.41 | 0.449 | 0.452 | 0.436 | 1.05 | 0.697 | 0.955 | 0.908 | 0.692
